Common to all, as to type: in vivo
What all share (conditions): 20 days after

Assay [1] deals with damping-off fungus (Rhizoctonia solani). The assay can be described thus: Test Example 21: corn seed treatment, damping-off pot test. The method, then:
A chemical liquid wherein penflufen is dissolved in acetone/Tween 20 (weight ratio=95:5) and a chemical liquid wherein fluxapyroxad is dissolved in acetone/Tween 20 (weight ratio=95:5) were prepared independently. In a rotary seed treatment machine (trade name: HEGE11, manufactured by WINTERSTEIGER), corn seeds (variety: yellow dent corn) were treated by smearing treatment using one of these chemical liquid and the flowable formulation of the present bacterial strain obtained in Formulation Example 13, so that the corn seeds retain the present bacterial strain and/or the compound in the amount shown in Table 6.
Cultivation was carried out in a greenhouse under irrigation (“treated compartment”). The plants were investigated 20 days after for the number of diseased plants, and the disease incidence was calculated by the following “Equation 1”. Similar procedures were conducted using untreated corn seeds, instead of the treated corn seeds, as described above for the treated compartment (“untreated compartment”). The plants were investigated 20 days after for the number of diseased plants, and the disease incidence was calculated by the following “Equation 1”. The control value of the treated compartment was calculated by the following equation “Equation 2”, based on the disease incidences of the treated compartment and the untreated compartment. Disease incidence (%)=100×(number of diseased plant/total number of seeded seeds): Equation 1 Control value (%)=100×[(disease incidence in untreated compartment−disease incidence in treated compartment)/disease incidence in untreated compartment]: Equation 2
(§1) If the effect by the combination of two active ingredients is greater than that of the estimated value E, which is calculated by the Colby's equation as follows, the effect is regarded as synergistic. E=X+Y−X·Y/100 wherein, E=Control value when using the mixture of the active ingredients A and B at the concentrations m and n (amount of the active ingredient), respectively. X=Control value when using the active ingredient A at the concentration m (amount of the active ingredient). Y=Control value when using the active ingredient B at the concentration n (amount of the active ingredient).

Assay [2] concerns phytopathogenic Fusarium (Fusarium sp.). The assay can be described thus: Test Example 22: soybean seed treatment, Fusarium pot test. On the procedure:
If the effect by the combination of two active ingredients is greater than that of the estimated value E, which is calculated by the Colby's equation as follows, the effect is regarded as synergistic. E=X+Y−X·Y/100 wherein, E=Control value when using the mixture of the active ingredients A and B at the concentrations m and n (amount of the active ingredient), respectively. X=Control value when using the active ingredient A at the concentration m (amount of the active ingredient). Y=Control value when using the active ingredient B at the concentration n (amount of the active ingredient). […]
Cultivation was carried out in a greenhouse under irrigation (“treated compartment”). The plants were investigated 20 days after for the number of diseased plants, and the disease incidence was calculated by the following “Equation 1”. […] The plants were investigated 20 days after for the number of diseased plants, and the disease incidence was calculated by the following “Equation 1”. The control value of the treated compartment was calculated by the following equation “Equation 2”, based on the disease incidences of the treated compartment and the untreated compartment. […]

Assay [3] shares this test system. The assay can be described thus: Test Example 23: soybean seed treatment, Fusarium pot test. On the procedure: as §1
Boscalid was dissolved in acetone/Tween 20 (weight ratio=95:5) to prepare a chemical liquid. In a rotary seed treatment machine (trade name: HEGE11, manufactured by WINTERSTEIGER), soybean seeds (variety:“Hatayutaka”) were treated by smearing treatment using the chemical liquid and the flowable formulation of the present bacterial strain obtained in Formulation Example 13 and sedaxane flowable formulation (43.7% flowable formulation, trade name: Vibrance, Syngenta Crop Protection LLC), so that the soybean seeds retain the bacteria, sedaxane and boscalid in the amount shown in Table 8.
Cultivation was carried out in a greenhouse under irrigation (“treated compartment”). The plants were investigated 20 days after for the number of diseased plants, and the disease incidence was calculated by the following “Equation 1”. Also, similar procedures were conducted using untreated soybean seeds, instead of the treated soybean seeds, as described above for the treated compartment (“untreated compartment”).
The plants were investigated 20 days after for the number of diseased plants, and the disease incidence was calculated by the following “Equation 1”. The control value of the treated compartment was calculated by the following equation “Equation 2”, based on the disease incidences of the treated compartment and the untreated compartment. Disease incidence (%)=100×(number of diseased plant/total number of seeded seeds): Equation 1 Control value (%)=100×[(disease incidence in untreated compartment−disease incidence in treated compartment)/disease incidence in untreated compartment]: Equation 2

The mark [4] stands for this setting: corn seeds retaining 0.005 g/Kg seeds of compound alone.
Where [5] appears, read: soybean seeds retaining 0.05 g/Kg seeds of compound alone.

As for `Cn1cc(C(=O)Nc2ccccc2-c2cc(F)c(F)c(F)c2)c(C(F)F)n1` [Fluxapyroxad, fluxapyroxad], the “Controlling Effect” value was 31% in assay [1] (corn seeds retaining 0.0025 g/Kg seeds of compound alone) and 39% in assay [1] (setting [4]).

Regarding `O=C(NCCc1ncc(C(F)(F)F)cc1Cl)c1ccccc1C(F)(F)F` [Fluopyram, fluopyram], the “Controlling Effect” value stood at 29% in assay [2] (soybean seeds retaining 0.025 g/Kg seeds of compound alone) and 44% in assay [2] (setting [5]).

Turning to `Cn1cc(C(=O)Nc2ccccc2C2CC2C2CC2)c(C(F)F)n1` (stereo not shown) [Sedaxane, sedaxane], the results for the “Controlling Effect” value in assay [3] (soybean seeds retaining 0.005 g/Kg seeds of compound alone) and in assay [3] (soybean seeds retaining 0.01 g/Kg seeds of compound alone) were 32% and 35%, respectively.

Turning to `O=C(Nc1ccccc1-c1ccc(Cl)cc1)c1cccnc1Cl` [Boscalid, boscalid], the “Controlling Effect” value in assay [3] (setting [5]) came to 23%; in assay [3] (soybean seeds retaining 0.1 g/Kg seeds of compound alone), 47%.

For `Cc1nn(C)c(F)c1C(=O)Nc1ccccc1C(C)CC(C)C` (stereo not shown) [Penflufen, penflufen], the “Controlling Effect” value in assay [1] (setting [4]) is 25%; in assay [1] (corn seeds retaining 0.01 g/Kg seeds of compound alone), 42%.

Values taken from patent publication US10463048B2, “Plant disease control composition and plant disease control method” (SUMITOMO CHEMICAL COMPANY, LIMITED, priority 2015, dated 2019).
